Data taken from paper PMC3674995, “Safety, Pharmacokinetic, and Efficacy Studies of Oral DB868 in a First Stage Vervet Monkey Model of Human African Trypanosomiasis” (PLoS Neglected Tropical Diseases, 2013).
Several values for one entry are separate records, joined by “and”; a condition that tells them apart may be missing. Equal values may be shown once. Entries after “also recorded” stand apart in the source; their conditions may differ.

Tests used:
[1] = Pharmacokinetics in infected vervet monkeys (first stage HAT); format: in vivo, vervet monkey; details: monkey, plasma, po, prodrug in plasma post-LDD, all oral DB868 regimens; infected; 0.04 days = 1 h; read-out: Tmax (majority, 4/6 monkeys) (converted)
T. b. brucei GVR35 = test system: T. b. brucei GVR35; parameters: method as in PMID 19620327; details: oral administration; cited from earlier work
[2] = Metabolism of DB868 in vervet monkey liver microsomes; format: in vitro ADME; details: 10 µM, 0.5 mg/mL microsomes, 1 mM NADPH, pH 7.4, up to 120 min
Description: DB868 metabolism was studied in male vervet monkey liver microsomes (custom-prepared by XenoTech, LLC, Lenexa, KS, USA) by adapting a previously published method. Briefly, incubation mixtures contained 10 µM DB868, 0.5 mg/mL monkey liver microsomes, and 3.3 mM MgCl2 in 100 mM phosphate buffer (pH 7.4). Reactions were initiated by the addition of NADPH (1 mM final concentration). Control incubations were carried out without NADPH, DB868, or liver microsomes. Aliquots (100 µL) of the reaction mixtures were removed at 0, 5, 10, 15, 30, 60 and 120 min and mixed with 100 µL of ice-cold acetonitrile. After centrifugation to pellet precipitated proteins, the supernatants were analyzed by HPLC/UV and fluorescence using the method previously described for pafuramidine (DB289) and furamidine (DB75). Metabolite identification was performed by comparing retention times to those of synthetic standards for M1 (DB1679), M2 (DB840), M3 (DB1712), and DB829. DB868 and its metabolites were quantified using a calibration curve (0.1–10 µM) generated using synthetic standards.

[3] = test system: T. b. rhodesiense STIB900; parameters: method as in PMID 19620327; details: oral administration; cited from earlier work
[4] = Safety (overt toxicity, haematology, clinical chemistry) in uninfected vervet monkeys; details: for peak plasma urea relative to baseline: p<0.05; for highest post-treatment mean ALT: plasma
[5] = Pharmacokinetics in uninfected vervet monkeys; details: uninfected; for concentration at 24 h / concentration at 4 h: both, monkey, po; for concentration at 24 h / concentration at 4 h / C24 h: plasma; for concentration at 24 h: C24 h; for concentration at 4 h: geometric mean C4 h, n = 4
[6] = parameters: method as in earlier work; details: cited from earlier work
[7] = test system: T. b. rhodesiense KETRI 2537; assay: Efficacy in first stage HAT vervet monkey model; format: in vivo; details: for time to clear parasites from the blood: after the 1st drug dose
Description: Monkeys that were deemed as treatment failures/relapses or developed severe adverse clinical signs as defined in the protocol (e.g., inability or reluctance to perch, less than ¼ of normal daily feed intake for 2–3 consecutive days) were immediately withdrawn from the study and humanely euthanized for post-mortem examination. These monkeys were euthanized by intravenous administration of 20% (w/v) pentobarbitone sodium solution (150 mg/kg body weight; Euthatal; Rhône-Mérieux, United Kingdom).

[8] = oral 10 mg/kg/day×10 days, 1–2 days post-LDD
[9] = after final oral dose of DB868 30 mg/kg×10 days, individual monkeys, 30 mg/kg
[10] = oral 3 mg/kg×7 days, monkeys 638, 643

CONC(=N)c1ccc(-c2ccc(-c3ccc(C(=N)NOC)cn3)o2)nc1 [DB868, 2,5-bis[5-(N-methoxyamidino)-2-pyridyl]furan]
Tmax [1]: 57.6 min
curative (T. b. brucei GVR35): 100%
metabolites formed [2]: metabolized in male vervet monkey liver microsomes to M1 (DB1679), M2 (DB840), M3 (DB1712), M4, and the active compound DB829
curative [3]: 100%
transient increase of plasma urea concentrations ([4]; both dose groups, 1–2 days after the last drug dose): 2–3 fold
adverse clinical signs ([4]; oral 10 mg/kg/day for 10 days, uninfected, n = 4): did not exhibit any adverse clinical signs
BUN equivalent of peak mean urea [4, 8]: 35.9 mg/dL
mean creatinine concentration [4, 8]: 72.3 µmol/L
mean creatinine concentration (equivalent) [4, 8]: 0.8 mg/dL
peak mean urea concentration [4, 8]: 12.8 mmol/L
peak plasma urea relative to baseline [4, 8]: 2.1 fold
maximum decline of mean body weight from baseline ([4]; oral 10 mg/kg/day×10 days, baseline 3.2 kg±0.5): 6.2%
highest post-treatment mean ALT relative to second baseline sample ([4]; oral 10 mg/kg/day×10 days, p = 0.71): 2.8 fold
highest post-treatment mean ALT ([4]; oral 10 mg/kg/day×10 days): 31.3 IU/L
overt toxicity ([4]; oral 30 mg/kg/day for 10 days (cumulative 300 mg/kg), uninfected, two of four monkeys: excess mucous in stool, transient inappetance): mild signs of toxicity; also recorded: No significant overt toxicity
peak plasma urea relative to baseline ([4]; oral 30 mg/kg/day×10 days, 1–2 days post-LDD): 2.7 fold
maximum decline of mean body weight from baseline ([4]; oral 30 mg/kg/day×10 days, baseline 3.1 kg±0.3): 6.5%
mean white blood cell count, transient increase over baseline post-LDD ([4]; oral 30 mg/kg/day×10 days, p = 0.05, returned to baseline after 24 h, judged not drug-related): 1.5 fold
highest post-treatment mean ALT relative to second baseline sample ([4]; oral 30 mg/kg/day×10 days, p = 0.37): 1.3 fold
highest post-treatment mean ALT ([4]; oral 30 mg/kg/day×10 days): 20.5 IU/L
post-dosing variations of mean plasma creatinine ([4]; oral 10 or 30 mg/kg/day×10 days, not statistically significant (p>0.05)): minimal
mean AST and total and direct bilirubin levels versus baseline ([4]; oral 10 or 30 mg/kg/day×10 days, p>0.05): not statistically different from baseline values
gastrointestinal toxicity (stool, faecal occult blood tests) ([4]; oral 10 or 30 mg/kg/day×10 days, uninfected): no notable gastrointestinal toxicity occurred
overall tolerability ([4]; two oral regimens, 10 and 30 mg/kg/day for 10 days, uninfected): well tolerated
haematological parameters versus baseline ([4]; two treatment groups, 10 and 30 mg/kg/day×10 days, uninfected): did not vary significantly from baseline
AUC0-∞ [5, 9]: 200 nmol·days/L and 540 nmol·days/L and 260 nmol·days/L and 180 nmol·days/L
AUClast [5, 9]: 190 nmol·days/L and 530 nmol·days/L and 210 nmol·days/L and 170 nmol·days/L
t1/2 (terminal elimination half-life) [5, 9]: 0.4 day and 1 day (2×) and 1.3 day
concentration at 24 h ([5]; 10 mg/kg, 24 h after final oral dose of DB868 10 mg/kg×10 days, individual monkeys, BLQ = below limit of quantitation): 6 nM
concentration at 4 h ([5]; 10 mg/kg/day, oral DB868 10 mg/kg/day×10 days): 89 nM
concentration at 24 h ([5]; 30 mg/kg, 24 h after final oral dose of DB868 30 mg/kg×10 days, individual monkeys): 66 nM
concentration at 4 h ([5]; 30 mg/kg/day, oral DB868 30 mg/kg/day×10 days): 466 nM
time for plasma concentration to decline below the limit of detection ([5]; oral DB868 10 mg/kg/day×10 days): less than 1 day post-LDD
time for plasma concentration to decline below the limit of detection ([5]; oral DB868 30 mg/kg/day×10 days): 1–2 days post-LDD
geometric mean C4 h, 30 mg/kg group relative to 10 mg/kg group ([5]; oral DB868×10 days): 5.2 fold
C4 h ([5]; plasma concentration at 4 h after final (10th) oral dose of DB868 10 mg/kg×10 days, individual monkeys 643, 659, 675, 677, 10 mg/kg): 50 nM and 130 nM and 39 nM and 250 nM
C4 h ([5]; plasma concentration at 4 h after final (10th) oral dose of DB868 30 mg/kg×10 days, individual monkeys 546, 567, 668, 679, 30 mg/kg): 330 nM and 1600 nM and 280 nM and 320 nM
C24 h ([5]; 24 h after final oral dose of DB868 10 mg/kg×10 days, individual monkeys, BLQ = below limit of quantitation, 10 mg/kg): BLQ
C24 h ([5]; 24 h after final oral dose of DB868 30 mg/kg×10 days, individual monkeys, 30 mg/kg): 38 nM and 47 nM and 35 nM
increase in ALT compared to untreated rats ([6]; female Sprague-Dawley rats, oral 25 mg/kg/day for 3 weeks): less than 2 fold
effect on KIM-1 ([6]; oral 12 mg/kg/day×28 days, entire 4-month observation period): no effect
day of dosing on which parasitologically negative ([7]; oral 3 mg/kg/day for 7 days, monkey 638): 6 day
time at which parasitologically negative ([7]; oral 3 mg/kg/day for 7 days, monkey 643): 3 days post-LDD
Trypanosomes blood/CSF at EoT ([7]; oral 3 mg/kg×7 days from 7 DPI, monkeys 638, 643): Neg
Final efficacy assesment [7, 10]: Cured
Provisional efficacy at 100 days post-treatment [7, 10]: Cured
time at which consistently parasitologically negative ([7]; oral 10 mg/kg/day for 7 days, monkey 675): 7 days post-LDD
day of treatment on which parasitologically negative ([7]; oral 10 mg/kg/day for 7 days, monkey 691): 6 day
Trypanosomes blood/CSF at EoT ([7]; oral 10 mg/kg×7 days from 7 DPI, monkeys 675, 691): Neg
Provisional efficacy at 100 days post-treatment ([7]; oral 10 mg/kg×7 days, monkeys 675, 691): Cured
day of drug administration by which trypanosomes were undetectable in blood ([7]; oral 20 mg/kg/day for 5 days, all three monkeys): ≤ 4 days
Trypanosomes blood/CSF at EoT ([7]; oral 20 mg/kg×5 days from 7 DPI, monkeys 585, 658, 686, Neg = negative, Pos = positive): Neg
time to clear parasites from the blood ([7]; oral, '30 mg/kg group'): 2 to 5 days
time to clearance of trypanosomes from peripheral blood ([7]; oral, after the 1st dose, depending on the dose): 2 to 14 days
cure of infected monkeys ([7]; oral, all three regimens (3 mg/kg/day×7, 10 mg/kg/day×7, 20 mg/kg/day×5 days), treatment from 7 DPI): All infected monkeys were cured
dose required to achieve complete cure ([7]; oral, for 7 days, first stage HAT monkey model): 3 mg/kg
time to clear parasites from the blood ([7]; oral, lower dose regimen groups (3 and 10 mg/kg)): 6 to 14 days
curative cumulative dose, fold lower than the maximum tolerated dose ([7]; oral, 21 mg/kg vs 300 mg/kg cumulative): 14 fold
